The text below walks through data of the supplement of paper PMC8967900.

Each structure is given as a SMILES string.
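Further: ALL cell lines in 384-well plates, five doses spanning 10,000-fold, each plate scaled between vehicle and 100 µmol/L benzalkonium chloride controls, sDSS an adapted area-under-curve metric.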

In the first assay the test system is KOPN-8. Briefly: selective drug sensitivity score (sDSS, relative to normal bone marrow) (sDSS (score)); higher = more potent and effective on the cell line relative to normal bone marrow cells. Particulars: 72 h.
With `CC(C)(C)c1cnc(CSc2cnc(NC(=O)C3CCNCC3)s2)o1` [SNS-032] (top concentration 10000 nM), the “selective drug sensitivity score” value was -2.54.

With `Cn1cncc1[C@@](N)(c1ccc(Cl)cc1)c1ccc2c(c1)c(-c1cccc(Cl)c1)cc(=O)n2C` [Tipifarnib] (top concentration 10000 nM), the “selective drug sensitivity score” value was 11.2.

`COc1ccccc1S(=O)(=O)Nc1ccc2c(c1)CN(C)C(=O)N2` [PFI-1] (top concentration 30000 nM): the “selective drug sensitivity score” value came out at 17.3.

Consider `Cc1cn(-c2cc(NC(=O)c3ccc(C)c(Nc4nccc(-c5cnccn5)n4)c3)cc(C(F)(F)F)c2)cn1` [Radotinib] (top concentration 10000 nM), for which the “selective drug sensitivity score” value was found to be 10.3.

Take `CC[C@H](Nc1ncnc2[nH]cnc12)c1nc2cccc(F)c2c(=O)n1-c1ccccc1` [Idelalisib] (top concentration 10000 nM): the “selective drug sensitivity score” value worked out at 5.64.

Consider `Cc1noc2c1-c1ccccc1C(c1ccc(Cl)cc1)=N[C@H]2CC(N)=O` [CPI-0610] (top concentration 10000 nM), for which the “selective drug sensitivity score” value came out at 11.1.

In the case of `C=C(c1ccc(C(=O)O)cc1)c1cc2c(cc1C)C(C)(C)CCC2(C)C` [Bexarotene] (top concentration 10000 nM), the “selective drug sensitivity score” value was determined as 8.

Consider `CC1(COc2ccc3c(c2)ncn3-c2ccc3cccc(N4CCC(N)CC4)c3n2)COC1` [Crenolanib] (top concentration 10000 nM), for which the “selective drug sensitivity score” value came to 0.68.

`O=C(Nc1cc(Oc2cc(F)c(NC(=O)C3(C(=O)Nc4ccc(F)cc4)CC3)cc2F)ccn1)C1CC1` [Altiratinib] (top concentration 10000 nM): the “selective drug sensitivity score” value was 3.74.

As to `O=C(Nc1ccncc1)C(=O)c1cn(Cc2ccc(Cl)cc2)c2ccccc12` [Indibulin] (top concentration 10000 nM), the “selective drug sensitivity score” value turned out to be 17.9.

Turning to `Cc1ncc(-c2ccnc(Nc3ccc(S(C)(=O)=O)cc3)n2)n1C(C)C` [AZD-5438] (top concentration 10000 nM), the “selective drug sensitivity score” value was found to be 5.24.

With `NC[C@@](O)(c1ccc(Cl)cc1)c1ccc(-c2cn[nH]c2)cc1` (top concentration 10000 nM), the “selective drug sensitivity score” value came to 3.38.

On to `Cn1c(Nc2ccc(C(F)(F)F)cc2)nc2cc(Oc3ccnc(-c4ncc(C(F)(F)F)[nH]4)c3)ccc21` [NVP-RAF265] (top concentration 1000 nM), for which the “selective drug sensitivity score” value was found to be 4.18.

As for `CNCc1ccc(-c2[nH]c3cc(F)cc4c3c2CCNC4=O)cc1` [Rucaparib] (top concentration 10000 nM), the “selective drug sensitivity score” value is 5.12.

In the case of `O=C(CCCCCCC(=O)Nc1ccc([C@H]2O[C@@H](CSc3nc(-c4ccccc4)c(-c4ccccc4)o3)C[C@@H](c3ccc(CO)cc3)O2)cc1)NO` [Tubacin] (top concentration 10000 nM), the “selective drug sensitivity score” value was found to be 16.9.

On to `N#CCNC(=O)c1ccc(-c2ccnc(Nc3ccc(N4CCOCC4)cc3)n2)cc1` [Momelotinib] (top concentration 10000 nM), for which the “selective drug sensitivity score” value was -1.62.

On to `Nc1cccc2c1CN(C1CCC(=O)NC1=O)C2=O` (stereo not given) [Lenalidomide] (top concentration 100000 nM), for which the “selective drug sensitivity score” value was 1.02.

For `CCN1CCN(Cc2ccc(Nc3ncc(F)c(-c4cc(F)c5nc(C)n(C(C)C)c5c4)n3)nc2)CC1` [Abemaciclib] (top concentration 2500 nM), the “selective drug sensitivity score” value was 20.2.

For another assay, the system named is LC4-1. The assay is described as above. The settings on record: 72 h.
Turning to `CC(C)(C)c1cnc(CSc2cnc(NC(=O)C3CCNCC3)s2)o1` [SNS-032] (top concentration 10000 nM), the “selective drug sensitivity score” value is -3.24.

In the case of `Cn1cncc1[C@@](N)(c1ccc(Cl)cc1)c1ccc2c(c1)c(-c1cccc(Cl)c1)cc(=O)n2C` [Tipifarnib] (top concentration 10000 nM), the “selective drug sensitivity score” value is 1.6.

As for `COc1ccccc1S(=O)(=O)Nc1ccc2c(c1)CN(C)C(=O)N2` [PFI-1] (top concentration 30000 nM), the “selective drug sensitivity score” value was 4.2.

As for `Cc1cn(-c2cc(NC(=O)c3ccc(C)c(Nc4nccc(-c5cnccn5)n4)c3)cc(C(F)(F)F)c2)cn1` [Radotinib] (top concentration 10000 nM), the “selective drug sensitivity score” value is 13.8.

As for `CC[C@H](Nc1ncnc2[nH]cnc12)c1nc2cccc(F)c2c(=O)n1-c1ccccc1` [Idelalisib] (top concentration 10000 nM), the “selective drug sensitivity score” value was -0.16.

Turning to `Cc1noc2c1-c1ccccc1C(c1ccc(Cl)cc1)=N[C@H]2CC(N)=O` [CPI-0610] (top concentration 10000 nM), the “selective drug sensitivity score” value was found to be 3.6.

For `C=C(c1ccc(C(=O)O)cc1)c1cc2c(cc1C)C(C)(C)CCC2(C)C` [Bexarotene] (top concentration 10000 nM), the “selective drug sensitivity score” value is 0.2.

For the molecule `CC1(COc2ccc3c(c2)ncn3-c2ccc3cccc(N4CCC(N)CC4)c3n2)COC1` [Crenolanib] (top concentration 10000 nM), the “selective drug sensitivity score” value is -3.92.

With `O=C(Nc1cc(Oc2cc(F)c(NC(=O)C3(C(=O)Nc4ccc(F)cc4)CC3)cc2F)ccn1)C1CC1` [Altiratinib] (top concentration 10000 nM), the “selective drug sensitivity score” value is -0.36.

Consider `O=C(Nc1ccncc1)C(=O)c1cn(Cc2ccc(Cl)cc2)c2ccccc12` [Indibulin] (top concentration 10000 nM), for which the “selective drug sensitivity score” value is 17.3.

For `Cc1ncc(-c2ccnc(Nc3ccc(S(C)(=O)=O)cc3)n2)n1C(C)C` [AZD-5438] (top concentration 10000 nM), the “selective drug sensitivity score” value stood at 0.44.

Turning to `NC[C@@](O)(c1ccc(Cl)cc1)c1ccc(-c2cn[nH]c2)cc1` (top concentration 10000 nM), the “selective drug sensitivity score” value is 1.28.

On to `Cn1c(Nc2ccc(C(F)(F)F)cc2)nc2cc(Oc3ccnc(-c4ncc(C(F)(F)F)[nH]4)c3)ccc21` [NVP-RAF265] (top concentration 1000 nM), for which the “selective drug sensitivity score” value was found to be 7.48.

Take `CNCc1ccc(-c2[nH]c3cc(F)cc4c3c2CCNC4=O)cc1` [Rucaparib] (top concentration 10000 nM): the “selective drug sensitivity score” value was 0.32.

For the molecule `O=C(CCCCCCC(=O)Nc1ccc([C@H]2O[C@@H](CSc3nc(-c4ccccc4)c(-c4ccccc4)o3)C[C@@H](c3ccc(CO)cc3)O2)cc1)NO` [Tubacin] (top concentration 10000 nM), the “selective drug sensitivity score” value came out at 7.14.

As for `N#CCNC(=O)c1ccc(-c2ccnc(Nc3ccc(N4CCOCC4)cc3)n2)cc1` [Momelotinib] (top concentration 10000 nM), the “selective drug sensitivity score” value is -4.62.

For the molecule `Nc1cccc2c1CN(C1CCC(=O)NC1=O)C2=O` (stereo not given) [Lenalidomide] (top concentration 100000 nM), the “selective drug sensitivity score” value was -0.58.

Take `CCN1CCN(Cc2ccc(Nc3ncc(F)c(-c4cc(F)c5nc(C)n(C(C)C)c5c4)n3)nc2)CC1` [Abemaciclib] (top concentration 2500 nM): the “selective drug sensitivity score” value was 2.94.

A further assay deals with MOLT-14. Described as above. Particulars: 72 h.
Regarding `CC(C)(C)c1cnc(CSc2cnc(NC(=O)C3CCNCC3)s2)o1` [SNS-032] (top concentration 10000 nM), the “selective drug sensitivity score” value was -4.74.

For `Cn1cncc1[C@@](N)(c1ccc(Cl)cc1)c1ccc2c(c1)c(-c1cccc(Cl)c1)cc(=O)n2C` [Tipifarnib] (top concentration 10000 nM), the “selective drug sensitivity score” value stood at 11.9.

`COc1ccccc1S(=O)(=O)Nc1ccc2c(c1)CN(C)C(=O)N2` [PFI-1] (top concentration 30000 nM): the “selective drug sensitivity score” value turned out to be 4.4.

For the molecule `Cc1cn(-c2cc(NC(=O)c3ccc(C)c(Nc4nccc(-c5cnccn5)n4)c3)cc(C(F)(F)F)c2)cn1` [Radotinib] (top concentration 10000 nM), the “selective drug sensitivity score” value was determined as 0.6.

With `CC[C@H](Nc1ncnc2[nH]cnc12)c1nc2cccc(F)c2c(=O)n1-c1ccccc1` [Idelalisib] (top concentration 10000 nM), the “selective drug sensitivity score” value was -2.16.

With `Cc1noc2c1-c1ccccc1C(c1ccc(Cl)cc1)=N[C@H]2CC(N)=O` [CPI-0610] (top concentration 10000 nM), the “selective drug sensitivity score” value is 0.3.

With `C=C(c1ccc(C(=O)O)cc1)c1cc2c(cc1C)C(C)(C)CCC2(C)C` [Bexarotene] (top concentration 10000 nM), the “selective drug sensitivity score” value came out at 0.4.

In the case of `CC1(COc2ccc3c(c2)ncn3-c2ccc3cccc(N4CCC(N)CC4)c3n2)COC1` [Crenolanib] (top concentration 10000 nM), the “selective drug sensitivity score” value was -1.22.

Turning to `O=C(Nc1cc(Oc2cc(F)c(NC(=O)C3(C(=O)Nc4ccc(F)cc4)CC3)cc2F)ccn1)C1CC1` [Altiratinib] (top concentration 10000 nM), the “selective drug sensitivity score” value was -0.36.
